As usually defined, the IC50 is the concentration at which inhibition is half-maximal.

Here are results for 12 molecules from ChEMBL document CHEMBL5126512, “Current status of carbazole hybrids as anticancer agents” (Eur J Med Chem, 2022).

The nature of data set [1]: Cytotoxicity against human MCF-12A cells assessed as cell growth inhibition measured after 72 hrs by MTT assay. The class given is toxicity, cell-based. In general terms: Tetrazolium assays rely on reduction of a dye to a coloured formazan, in cell work by metabolically active cells.
The test system of data set [2] is MDA-MB-231. Nature of the data set: Cytotoxicity against human MDA-MB-231 cells assessed as cell growth inhibition measured after 72 hrs by MTT assay. The class given is functional, cell-based. The conditions noted are these: MDA-MB-231, 72 h.
Data set [3] deals with MCF7. As to the kind of experiment: Cytotoxicity against human MCF7 cells assessed as cell growth inhibition measured after 72 hrs by MTT assay. The class given is functional, cell-based. The conditions noted are these: MCF7, 72 h.
Another data set relates to HCT-116. As to the kind of experiment: Antiproliferative activity against human HCT-116 cells assessed as cell growth inhibition measured after 48 hrs by MTT assay. The class given is functional, cell-based. To be noted: HCT-116, 48 h.
Another data set relates to HT-29. Nature of the data set: Antiproliferative activity against human HT-29 cells assessed as cell growth inhibition measured after 48 hrs by MTT assay. The class given is functional, cell-based. To be noted: HT-29, 48 h.
The subject of data set [4] is MDA-MB-231. As to the kind of experiment: Antiproliferative activity against human MDA-MB-231 cells assessed as cell growth inhibition measured after 72 hrs by MTT assay. The class given is functional, cell-based. To be noted: MDA-MB-231, 72 h.
Data set [5] relates to MCF7. Nature of the data set: Antiproliferative activity against human MCF7 cells assessed as cell growth inhibition measured after 72 hrs by MTT assay. The class given is functional, cell-based. To be noted: MCF7, 72 h.
A short description of data set [6]: Antiproliferative activity against human Lu1 cells assessed as cell growth inhibition by MTT assay. The class given is functional, cell-based.
The subject of data set [7] is HepG2. As to the kind of experiment: Antiproliferative activity against human HepG2 cells assessed as cell growth inhibition by MTT assay. The class given is functional, cell-based.
The test system of the next data set is SW480. As to the kind of experiment: Antiproliferative activity against human SW480 cells assessed as cell growth inhibition by MTT assay. The class given is functional, cell-based.
The nature of data set [8]: Antiproliferative activity against mouse […] cells assessed as cell growth inhibition by MTT assay. The class given is functional, cell-based.
For a further data set, the system named is DU-145. As to the kind of experiment: Antiproliferative activity against human DU-145 cells assessed as cell growth inhibition measured after 24 hrs by MTT assay. The class given is functional, cell-based. To be noted: DU-145, 24 h.
The subject of another data set is SK-OV-3. As to the kind of experiment: Antiproliferative activity against human SK-OV-3 cells assessed as cell growth inhibition measured after 24 hrs by MTT assay. The class given is functional, cell-based. The conditions noted are these: SK-OV-3, 24 h.
For data set [9], the system named is MDA-MB-231. As to the kind of experiment: Antiproliferative activity against human MDA-MB-231 cells assessed as cell growth inhibition measured after 24 hrs by MTT assay. The class given is functional, cell-based. The conditions noted are these: MDA-MB-231, 24 h.
The subject of another data set is B16-F10. As to the kind of experiment: Antiproliferative activity against mouse B16-F10 cells assessed as cell growth inhibition measured after 24 hrs by MTT assay. The class given is functional, cell-based. To be noted: B16-F10, 24 h.
The test system of data set [10] is MCF7. Nature of the data set: Antiproliferative activity against human MCF7 cells assessed as cell growth inhibition measured after 48 hrs by SRB assay. The class given is functional, cell-based. To be noted: MCF7, 48 h.
For the next data set, the system named is CCRF-CEM. Nature of the data set: Antiproliferative activity against human CCRF-CEM cells assessed as cell growth inhibition measured after 48 hrs by SRB assay. The class given is functional, cell-based. (In general: Sulforhodamine B stains cellular protein and so reports cell mass.)
The test system of a further data set is A549. As to the kind of experiment: Antiproliferative activity against human A549 cells assessed as cell growth inhibition measured after 48 hrs by SRB assay. The class given is functional, cell-based. The conditions noted are these: A549, 48 h.
Data set [11] deals with HepG2. As to the kind of experiment: Antitumor activity against human HepG2 xenografted in BALB/c nude mouse assessed as tumor growth inhibition at 50 mg/kg, iv administered every 2 days and measured upto 30 days relative to control. The class given is functional. To be noted: read-out: TGI. On the technique in general: In xenograft studies the graft and the host belong to different species.

For the next data set, the system named is HeLa. Nature of the data set: Antiproliferative activity against human HeLa cells assessed as cell growth inhibition by WST-1 assay. The class given is functional, cell-based.
The next data set deals with Bel-7402. Nature of the data set: Antiproliferative activity against human Bel-7402 cells assessed as cell growth inhibition measured after 48 hrs by SRB assay. The conditions noted are these: Bel-7402, 48 h. The class given is functional, cell-based.
Data set [12] concerns HepG2. Nature of the data set: Antitumor activity against human HepG2 xenografted in BALB/c nude mouse assessed as tumor growth inhibition at 10 mg/kg, iv administered every 2 days and measured upto 30 days relative to control. The class given is functional. The conditions noted are these: HepG2, 720 h, time <= 30 day, read-out: TGI.
In a further data set the test system is MIA PaCa-2. As to the kind of experiment: Antiproliferative activity against human MIA PaCa-2 cells assessed as cell growth inhibition measured after 48 hrs by SRB assay. To be noted: MIA PaCa-2, 48 h. The class given is functional, cell-based.
Data set [13] deals with HepG2. As to the kind of experiment: Antiproliferative activity against human HepG2 cells assessed as cell growth inhibition measured after 48 hrs by SRB assay. To be noted: HepG2, 48 h. The class given is functional, cell-based.
Data set [14] can be described thus: Cytotoxicity against human HFB4 cells assessed as cell growth inhibition measured after 24 hrs by MTT assay. The class given is toxicity, cell-based.
The subject of data set [15] is MCF7. Nature of the data set: Anticancer activity against human MCF7 cells assessed as cell growth inhibition measured after 24 hrs by MTT assay. To be noted: MCF7, 24 h. The class given is functional, cell-based.
In data set [16] the target is Urokinase-type plasminogen activator (Homo sapiens, UniProt P00749). As to the kind of experiment: Inhibition of urokinase plasminogen activator in human MCF7 cells measured after 24 hrs by ELISA method. The class given is cell-based.
Data set [17] is described as follows: Cytotoxicity against human ARPE-19 cells assessed as cell growth inhibition measured after 72 by Cell-Titre Glo luminescent cell viability assay. The class given is toxicity, cell-based.
The subject of the next data set is ASPC1. Nature of the data set: Anticancer activity against human ASPC1 cells assessed as cell growth inhibition measured after 72 hrs by Cell-Titre Glo luminescent cell viability assay. The class given is functional, cell-based. To be noted: ASPC1, 72 h.
Data set [18] is described as follows: Cytotoxicity against human MRC5 cells assessed as cell growth inhibition measured after 72 by Cell-Titre Glo luminescent cell viability assay. The class given is toxicity, cell-based.
The next data set deals with SW1990. Nature of the data set: Anticancer activity against human SW1990 cells assessed as cell growth inhibition measured after 72 hrs by Cell-Titre Glo luminescent cell viability assay. The class given is functional, cell-based. The conditions noted are these: SW1990, 72 h.
The next data set relates to Jurkat. As to the kind of experiment: Antiproliferative activity against human Jurkat cells assessed as cell growth inhibition measured after 48 hrs by MTT assay. The class given is functional, cell-based.

As to `CC[n+]1c(/C=C/c2ccc3c(c2)c2ccccc2n3CCCCn2ccnc2)sc2ccccc21`, the IC50 at 72 h in data set [1] was more than 18 µM. For the same molecule, the values for the IC50 in the data set with MDA-MB-231 [2] and in the data set with MCF7 [3] were 11.4 µM and 9.5 µM, respectively.

Regarding `COc1ccc2c(c1)[nH]c1cc(O)c(CN3CCCCC3)cc12`, the IC50 in the data set on HCT-116 and in the data set with HT-29 was 18 µM throughout.

As to `C[N+](C)(C)CCN1CCN(CCCCCn2c3ccccc3c3cc(Cl)ccc32)CC1`, the IC50 with MDA-MB-231 [4] and in the data set on MCF7 [5] was 4.4 µM throughout.

Take `CCN1CCN(CC(O)Cn2c3ccccc3c3cc(C)c(OC)cc32)CC1` (stereo not drawn): the IC50 (in data set [6]; with HepG2 [7]; with SW480; in [8]) was 3.99 µM throughout.

As for `CNC1=C([N+](=O)[O-])C(c2cc(OC)c(OC)c(OC)c2)c2ccc3[nH]c4ccccc4c3c2O1` (stereo not drawn), the IC50 with DU-145, with SK-OV-3, in the data set with MDA-MB-231 [9] and in the data set on B16-F10 was 5.1 µM each time.

`COc1ccc2c(c1)c1cc3c(-c4c([N+](=O)[O-])ncn4C)nccc3c(C)c1n2C`: the IC50 in the data set with MCF7 [10] was 1.08 µM; in the data set on CCRF-CEM, 1080 nM; in the data set on A549, 1080 nM.

In the case of `COc1ccc(/C=C\c2cc(OC)c(OC)c(OC)c2)cc1OP(=O)(O)O` [FOSBRETABULIN], the inhibition in vivo at 50 mg/kg in the data set on HepG2 [11] came to 48.3%.

In the case of `CC(C)=CCCC1(C)C=Cc2c(c(C)cc3c2[nH]c2c(-c4c(O)ccc5c4[nH]c4c6c(c(C)cc45)OC(C)(CCC=C(C)C)C=C6)c(O)ccc23)O1` (stereo not drawn), in the data set with HeLa, the IC50 was 20 µM.

In the case of `COc1ccc(NS(=O)(=O)c2ccc3c(c2)c2cc(OCCCN4CCN(C)CC4)ccc2n3C)c(OC)n1`, the IC50 in the data set on MCF7 [10], with Bel-7402, in the data set with MIA PaCa-2 and in the data set on HepG2 [13] was 5.67 µM each time. Moreover, the inhibition in vivo at 10 mg/kg in the data set on HepG2 [12] is 61.1%.

On to `O=[N+]([O-])c1coc(C2c3[nH]c4ccccc4c3C(c3cc([N+](=O)[O-])co3)c3[nH]c4ccccc4c32)c1` (stereo not drawn), for which the IC50 at 24 h in [14] came to 75.2 µM. Further, the IC50 in the data set on MCF7 [15] stood at 5.24 µM; in [16], 3.8 µM.

In the case of `CCCCn1c2ccccc2c2cc(/C=N/NC(=O)c3ccncc3)ccc21`, the IC50 in data set [17] turned out to be 65.6 µM; in the data set with ASPC1, 3.42 µM; in data set [18] it was 64.8 µM; with SW1990 it was 22.4 µM.

With `O=C(Cn1c2ccccc2c2c3oc(=O)cc(COC(=O)CCCc4ccc(N(CCCl)CCCl)cc4)c3ccc21)NCCC[P+](c1ccccc1)(c1ccccc1)c1ccccc1`, the half-inhibitory concentration (IC50) in the data set with Jurkat turned out to be 20 µM.
